# System: normal ICR mice
# Assay: Blood glucose level of normal mice after oral administration of glucose
# Format: in vivo
# Details: for Blood glucose 0 min: 0 min (fasting, 1 h after dosing); for Blood glucose 30 min: 30 min after glucose 2.0 g/kg; for Blood glucose 60 min: 60 min after glucose 2.0 g/kg; for Blood glucose 120 min: 120 min after glucose 2.0 g/kg; for AUC of blood glucose: oral glucose 2.0 g/kg; for Reduction of the area under the curve (AUC) of blood glucose: vs. normal control group
# Method: Test Example 2 Evaluation of the in vivo activity of the compounds of the present invention: the effect on the blood glucose level of normal mice after oral administration of glucose
# ICR mice (male, 18-20 g), purchased from Beijing Vital River Laboratories Co., Ltd., were fed adaptively for 4 days, and randomly divided into 4 groups, namely normal control group, positive control group, and two groups of test compounds, with 8 mice in each group.
# The aforementioned stock solutions were diluted to appropriate concentrations with double distilled water.
# The mice were fasted overnight. […] After 1 h, blood was collected at 0 min (fasting), and then mice in each group were administered with glucose (2.0 g/kg) solution by gavage. Blood was collected at 30 min, 60 min, and 120 min after glucose administration. The blood glucose level was measured using glucose oxidase-peroxidase method, and the area under the blood glucose curve was calculated.
# The data were expressed as mean±SD. The comparison between multiple groups was performed by one-way analysis of variance, and the comparison between two groups was performed by Dunnett's t test. Statistical graphing was performed using Graphpad Prism software.
Structure (SMILES),Blood glucose 0 min (2 mg/kg by gavage) [mg/dL],Blood glucose 30 min (2 mg/kg by gavage) [mg/dL],Blood glucose 60 min (2 mg/kg by gavage) [mg/dL],Blood glucose 120 min (2 mg/kg by gavage) [mg/dL],AUC of blood glucose (2 mg/kg by gavage) [mg·h/dL],Reduction of the area under the curve (AUC) of blood glucose (2 mg/kg) [%],Blood glucose 0 min (4 mg/kg by gavage) [mg/dL],Blood glucose 30 min (4 mg/kg by gavage) [mg/dL],Blood glucose 60 min (4 mg/kg by gavage) [mg/dL],Blood glucose 120 min (4 mg/kg by gavage) [mg/dL],AUC of blood glucose (4 mg/kg by gavage) [mg·h/dL],Reduction of the area under the curve (AUC) of blood glucose (4 mg/kg) [%]
"CS[C@H]1O[C@@H](c2ccc(C)c(Cc3ccc4c(c3)OCCO4)c2)[C@H](O)[C@@H](O)[C@@H]1O (stereo in doubt) [Compound 2, 2-[3-(2,3-dihydro-1,4-benzodioxin-6-ylmethyl)-4-methylphenyl]-6-(methylthio)oxane-3,4,5-triol]",75.9 ± 6.7,207.8 ± 13.6,119.3 ± 12.5,73.0 ± 11.4,248.8 ± 18.0,37.4,63.6 ± 8.3,189.5 ± 14.3,103.2 ± 5.1,78.2 ± 13.9,227.1 ± 13.1,42.9
"CCOc1ccc(Cc2cc([C@@H]3O[C@H](CO)[C@@H](O)[C@H](O)[C@H]3O)ccc2Cl)cc1 [Dapagliflozin, reference compound]",71.8 ± 6.6,213.2 ± 26.6,122.2 ± 16.1,83.0 ± 13.5,257.7 ± 24.0,35.2,,,,,,
